Test results: article PMC4458377 (Biochemistry, 2014)

How the values were obtained:
BAZ2B bromodomain [1] = target: T1, BAZ2B bromodomain (Homo sapiens, UniProt Q9UIF8); settings: acetylated lysine alone; cited from earlier work
T1 sequence (Q9UIF8 1868-1972 isoform Q9UIF8-4): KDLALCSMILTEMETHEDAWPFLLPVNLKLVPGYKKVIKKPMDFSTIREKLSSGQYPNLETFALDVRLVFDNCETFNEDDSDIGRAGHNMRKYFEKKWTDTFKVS

BAZ2B bromodomain [2] = target: T1, BAZ2B bromodomain; assay: ITC of H3K14ac peptides binding to BAZ2B bromodomain

Compound	interaction with BAZ2B bromodomain (BAZ2B bromodomain [1])	Kd (BAZ2B bromodomain [2])	reduction in affinity relative to Peptide 4 (BAZ2B bromodomain [2]; ITC KD ratio)
CC(=O)NCCCC[C@H](N)C(=O)O [Acetylated lysine, N-ε-acetyl lysine]	interact only very weakly		
CC(=O)NCCCC[C@H](NC(=O)CNC(=O)CNC(=O)[C@@H](NC(=O)[C@H](CO)NC(C)=O)[C@@H](C)O)C(=O)N[C@@H](C)C(=O)N1CCC[C@H]1C(=O)N[C@@H](CCCNC(=N)N)C(=O)N[C@@H](CCCCN)C(N)=O [Peptide 1]		45 ± 3.3 µM	2 fold
CC(=O)NCCCC[C@H](NC(=O)CNC(=O)CNC(=O)[C@@H](NC(=O)[C@H](CO)NC(=O)[C@H](CCCCN)NC(C)=O)[C@@H](C)O)C(=O)N[C@@H](C)C(=O)N1CCC[C@H]1C(=O)N[C@@H](CCCNC(=N)N)C(=O)N[C@@H](CCCCN)C(=O)N[C@@H](CCC(N)=O)C(N)=O [Peptide 3]		15.7 ± 1.1 µM	
Ac-KSTGGK(Ac)APRK-NH2 [Peptide 4]		21.8 ± 1.4 µM	
